Experimental data: patent EP4707280A1, “1,4-CINEOLE DERIVATIVE AND INTERMEDIATE THEREOF, HERBICIDE CONTAINING SAID DERIVATIVE AS ACTIVE INGREDIENT, METHOD FOR USING HERBICIDE, AND METHOD FOR PREPARING AGROCHEMICAL COMPOSITION” (HOKKO CHEMICAL INDUSTRY CO., LTD., priority 2023, dated 2024)

Tests used:
Assay type in all cases: in vivo
[1] = tested on: Echinochloa crus-galli var. formosensis; assay: Test Example 1: herbicidal effect test by soil application in paddy rice; conditions: Echinochloa crus-galli, soil, 336 h; 120 g active ingredient per 10 ares; applied immediately after sowing, flooded pots; 14 days after application; read-out: weed inhibition rate
Procedure, shortened: (§1)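 Weeds sown 0–1 cm deep (30 seeds each) into fertilized, puddled paddy soil in Wagner pots. Pots are flooded immediately, water held near 3 cm, and the diluted emulsifiable concentrate is dripped in at once, delivering 120 g active ingredient per 10 ares under glass-greenhouse management.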

Scirpus juncoides [2] = assay: as above; conditions: Schoenoplectiella juncoides, soil, 336 h; 120 g active ingredient per 10 ares; applied immediately after sowing, flooded pots; 14 days after application; read-out: weed inhibition rate
Procedure, shortened: as §1

[3] = tested on: Echinochloa crus-galli var. formosensis; assay: Test Example 2: herbicidal effect test by application during growth period of paddy rice; conditions: Echinochloa crus-galli; 120 g per 10 ares; applied seven days after sowing, flooded pots; 14 days after application; read-out: weed inhibition rate
Procedure, shortened: (§2)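 Steps: puddle fertilized paddy soil; sow 30 seeds of each weed at 0–1 cm; flood to roughly 3 cm and keep in a glasshouse; at day 7 drop in diluted emulsifiable concentrate (120 g a.i. per 10 ares); score inhibition (%) 14 days later, two replicates.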

Scirpus juncoides [4] = assay: as above; conditions: Schoenoplectiella juncoides; 120 g per 10 ares; applied seven days after sowing, flooded pots; 14 days after application; read-out: weed inhibition rate
Procedure, shortened: as §2

[5] = tested on: Echinochloa crus-galli var. formosensis; assay: Test Example 5: herbicidal effect test by soil application in paddy rice (low dose); conditions: Echinochloa crus-galli, soil, 336 h; 7.5 g per 10 ares; applied immediately after sowing, flooded pots; 14 days after application; read-out: weed inhibition rate
Procedure, shortened: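 Flooded-paddy soil application at low dose (7.5 g a.i. per 10 ares), given by dropper as diluted emulsifiable concentrate directly after sowing weeds 0–1 cm deep. Effect evaluated after 14 days in duplicate.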

Digitaria ciliaris [6] = assay: Test Example 3: herbicidal effect test by soil application in upland field; conditions: Digitaria ciliaris, 120 g per 10 ares, sprayed one day after sowing, 14 days after application, read-out: weed inhibition rate
Procedure, shortened: (§3)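 Pre-emergence test: seeds mixed into top 1 cm of alluvial loam upland soil in pots; emulsifiable concentrate diluted in water sprayed on soil one day after sowing at 100 L/10 a, 120 g a.i./10 a. Weed inhibition rate (%) scored at 14 days, in duplicate.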

Echinochloa crus-galli [7] = assay: as above; conditions: Echinochloa crus-galli, 120 g per 10 ares, sprayed one day after sowing, 14 days after application, read-out: weed inhibition rate
Procedure, shortened: as §3

Digitaria ciliaris [8] = assay: Test Example 4: herbicidal effect test by stem and leaf treatment in upland field; conditions: Digitaria ciliaris; 120 g per 10 ares; sprayed seven days after sowing, upland soil; 14 days after application; read-out: weed inhibition rate
Digitaria ciliaris [9] = assay: Test Example 8: herbicidal effect test by stem and leaf treatment in upland field (low dose); conditions: Digitaria ciliaris; 7.5 g per 10 ares; sprayed seven days after sowing, upland soil; 14 days after application; read-out: weed inhibition rate
Experimental: (§4) The present test was conducted in duplicate for each chemical concentration group, and the weed inhibition rate (%) was determined 14 days after chemical application using the following formula (Math. 1). [formula]
(§5) Pots with an area of 36 cm^2 were filled with upland soil (alluvial loam), twenty seeds each of weeds of Digitaria ciliaris, and Echinochloa crus-galli were uniformly mixed with the top 1 cm layer of soil and the surface was lightly pressed down. Seven days after sowing, an emulsifiable concentrate prepared according to Formulation Example 5 using the compound shown below was diluted with water, and the diluted solution was sprayed onto the soil surface at a rate of 100 liters per 10 ares. The amount of the active ingredient to be applied was equivalent to 7.5 g per 10 ares. Fourteen days after chemical application, the herbicidal effect was evaluated according to the same criteria as in Test Example 1.

Echinochloa crus-galli [10] = assay: as above; conditions: Echinochloa crus-galli; 7.5 g per 10 ares; sprayed seven days after sowing, upland soil; 14 days after application; read-out: weed inhibition rate
Experimental: as §4, §5

[11] = tested on: Echinochloa crus-galli var. formosensis; assay: Test Example 6: herbicidal effect test by application during growth period of paddy rice (low dose); conditions: Echinochloa crus-galli; 7.5 g per 10 ares; applied seven days after sowing, flooded pots; 14 days after application; read-out: weed inhibition rate
Procedure, shortened: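 Low-dose water application, 7.5 g a.i. per 10 ares, given by dropper into flooded pots (about 3 cm depth) 7 days after sowing of 30 weed seeds each at 0–1 cm. Evaluation of inhibition (%) took place 14 days later, duplicate per rate.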

Echinochloa crus-galli [12] = assay: Test Example 4: herbicidal effect test by stem and leaf treatment in upland field; conditions: Echinochloa crus-galli; 120 g per 10 ares; sprayed seven days after sowing, upland soil; 14 days after application; read-out: weed inhibition rate
Digitaria ciliaris [13] = assay: Test Example 7: herbicidal effect test by soil application in upland field (low dose); conditions: Digitaria ciliaris, 7.5 g per 10 ares, sprayed one day after sowing, 14 days after application, read-out: weed inhibition rate
Experimental: as §4
as §5, with “One day” for “Seven days”

Echinochloa crus-galli [14] = assay: as above; conditions: Echinochloa crus-galli, 7.5 g per 10 ares, sprayed one day after sowing, 14 days after application, read-out: weed inhibition rate
Experimental: as §4
as §5, with “One day” for “Seven days”

CC(C)C12CC(OCc3ccccc3)C(C)(CC1I)O2 (stereo not drawn) [1-1408, 5-iodo-1-methyl-2-phenylmethoxy-4-isopropyl-7-oxabicyclo[2.2.1]heptane]
≥ 80%: pest or weed control at 1200 g/ha [1] | pest or weed control at 1200 g/ha (Scirpus juncoides [2]) | inhibition at 1200 g/ha [3] | inhibition at 1200 g/ha (Scirpus juncoides [4]) | inhibition at 75 g/ha [5] | inhibition at 1200 g/ha (Digitaria ciliaris [6]) | inhibition at 1200 g/ha (Echinochloa crus-galli [7]) | inhibition at 1200 g/ha (Digitaria ciliaris [8]) | inhibition at 75 g/ha (Digitaria ciliaris [9]) | inhibition at 75 g/ha (Echinochloa crus-galli [10]) | inhibition at 75 g/ha [11] | inhibition at 1200 g/ha (Echinochloa crus-galli [12]) | inhibition at 75 g/ha (Digitaria ciliaris [13]) | inhibition at 75 g/ha (Echinochloa crus-galli [14])

Cc1cccc(C)c1CO[C@@H]1C[C@]2(C(C)C)O[C@@]1(C)C[C@@H]2Cl [1-10, (1R,2S,4S,5R)-2-chloro-5-[(2,6-dimethylphenyl)methoxy]-1-isopropyl-4-methyl-7-oxabicyclo[2.2.1]heptane]
≥ 80%: pest or weed control at 1200 g/ha [1] | pest or weed control at 1200 g/ha (Scirpus juncoides [2]) | inhibition at 1200 g/ha [3] | inhibition at 1200 g/ha (Scirpus juncoides [4]) | inhibition at 75 g/ha [5] | inhibition at 1200 g/ha (Digitaria ciliaris [6]) | inhibition at 1200 g/ha (Echinochloa crus-galli [7]) | inhibition at 1200 g/ha (Digitaria ciliaris [8]) | inhibition at 75 g/ha (Digitaria ciliaris [9]) | inhibition at 75 g/ha (Echinochloa crus-galli [10]) | inhibition at 75 g/ha [11] | inhibition at 1200 g/ha (Echinochloa crus-galli [12]) | inhibition at 75 g/ha (Digitaria ciliaris [13]) | inhibition at 75 g/ha (Echinochloa crus-galli [14])

CC(C)C12CC(OCc3c(F)cccc3F)C(C)(CC1Br)O2 (stereo not drawn) [1-1379, 5-bromo-2-[(2,6-difluorophenyl)methoxy]-1-methyl-4-isopropyl-7-oxabicyclo[2.2.1]heptane]
≥ 80%: pest or weed control at 1200 g/ha [1] | inhibition at 1200 g/ha [3] | inhibition at 75 g/ha [5] | inhibition at 1200 g/ha (Digitaria ciliaris [6]) | inhibition at 1200 g/ha (Echinochloa crus-galli [7]) | inhibition at 1200 g/ha (Digitaria ciliaris [8]) | inhibition at 75 g/ha (Digitaria ciliaris [9]) | inhibition at 75 g/ha (Echinochloa crus-galli [10]) | inhibition at 75 g/ha [11] | inhibition at 1200 g/ha (Echinochloa crus-galli [12]) | inhibition at 75 g/ha (Digitaria ciliaris [13]) | inhibition at 75 g/ha (Echinochloa crus-galli [14])

CC(C)C12CC(OCc3ccccc3I)C(C)(CC1I)O2 (stereo not drawn) [1-1430, 2-iodo-5-[(2-iodophenyl)methoxy]-1-isopropyl-4-methyl-7-oxabicyclo[2.2.1]heptane]
≥ 80%: pest or weed control at 1200 g/ha [1] | pest or weed control at 1200 g/ha (Scirpus juncoides [2]) | inhibition at 1200 g/ha [3] | inhibition at 1200 g/ha (Scirpus juncoides [4]) | inhibition at 75 g/ha [5] | inhibition at 1200 g/ha (Digitaria ciliaris [6]) | inhibition at 1200 g/ha (Echinochloa crus-galli [7]) | inhibition at 75 g/ha (Digitaria ciliaris [9]) | inhibition at 75 g/ha (Echinochloa crus-galli [10]) | inhibition at 75 g/ha [11] | inhibition at 1200 g/ha (Echinochloa crus-galli [12]) | inhibition at 75 g/ha (Digitaria ciliaris [13]) | inhibition at 75 g/ha (Echinochloa crus-galli [14])

Cc1ccccc1COC1CC2(C(C)C)C=CC1(C)O2 (stereo not drawn) [3-753, 4-methyl-5-[(2-methylphenyl)methoxy]-1-isopropyl-7-oxabicyclo[2.2.1]hept-2-ene]
≥ 80%: pest or weed control at 1200 g/ha [1] | pest or weed control at 1200 g/ha (Scirpus juncoides [2]) | inhibition at 1200 g/ha [3] | inhibition at 1200 g/ha (Scirpus juncoides [4]) | inhibition at 75 g/ha [5] | inhibition at 1200 g/ha (Digitaria ciliaris [6]) | inhibition at 1200 g/ha (Echinochloa crus-galli [7]) | inhibition at 75 g/ha (Digitaria ciliaris [9]) | inhibition at 75 g/ha (Echinochloa crus-galli [10]) | inhibition at 75 g/ha [11] | inhibition at 1200 g/ha (Echinochloa crus-galli [12]) | inhibition at 75 g/ha (Digitaria ciliaris [13]) | inhibition at 75 g/ha (Echinochloa crus-galli [14])
